Measurements reported in patent US20210255193A1, “LYSINE REACTIVE PROBES AND USES THEREOF” (The Scripps Research Institute, priority 2017, published 2021).
“Also recorded” adds a separate entry of the source. Blank lines part the entries; values can stand above or below the compound they belong to.

Tests used:
Assay type in all cases: binding
PNPO = biological target: T1, PNPO (Homo sapiens, UniProt Q9NVS9); assay: competitive gel-based ABPP, apparent IC50; conditions: read-out: apparent IC50, blockade of probe labeling of K100 in PNPO
T1 construct: Flag; expressed in transfected cells; host or cells: HEK 293T, transient transfection, soluble lysate
T1 sequence (Q9NVS9 1-261): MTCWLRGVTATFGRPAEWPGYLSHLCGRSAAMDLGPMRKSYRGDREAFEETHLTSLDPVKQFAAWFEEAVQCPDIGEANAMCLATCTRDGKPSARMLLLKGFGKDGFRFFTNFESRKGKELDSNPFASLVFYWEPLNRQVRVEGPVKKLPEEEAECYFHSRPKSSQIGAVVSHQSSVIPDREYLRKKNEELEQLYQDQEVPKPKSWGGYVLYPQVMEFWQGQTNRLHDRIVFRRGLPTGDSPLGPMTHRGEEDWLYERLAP
Procedure: (§1) Recombinant expression of proteins by transient transfection. HEK 293T cells were grown to 50% confluency in 10 ml DMEM supplemented with 10% fetal bovine serum (FBS), penicillin, streptomycin and glutamine in 10 cm tissue culture dishes. 3 μg of DNA was diluted in 500 μL DMEM and 30 μL of PEI (MW 40,000, 1 mg ml^−1, Polysciences) were added. The mixture was incubated at room temperature for 30 min and added dropwise to the cells. Cells were grown for 48 h at 37° C. with 5% CO2. Cells were washed with cold PBS, scraped with cold PBS and cell pellets were isolated by centrifugation (1,400 g, 3 min, 4° C.), and stored at −80° C. until use. Cell pellets were resuspended in PBS, lysed by sonication and fractionated (100,000 g, 45 min) to yield soluble and membrane fractions. The soluble fraction was adjusted to a final protein concentration of 1 mg ml^−1 for gel-based ABPP experiments.
(§2) Competitive gel-based ABPP and apparent IC50 values. 50 μl of soluble proteome (1 mg ml^−1) expressing the indicated protein were treated with fragment electrophiles (1 μl of 50× stock solution in DMSO) at ambient temperature for 1 h. The indicated probe (fluorophore or alkyne-containing, 1 μl of a 500 μM solution, final concentration=10 μM) was then added and allowed to react for an additional 1 h. CuAAC and in-gel fluorescence analysis were performed as described above. For quantification of inhibition and apparent IC50 determination, the percentage of labeling was determined by quantifying the integrated optical intensity of the bands using ImageLab 5.2.1 software (BioRad). Nonlinear regression analysis was used to determine the IC50 values from a dose-response curve generated using GraphPad Prism 7.

[1] = biological target: T2, Flag-tagged SIN3A (a.a. 1-400) (Homo sapiens, UniProt Q96ST3); assay: competitive gel-based ABPP, apparent IC50; conditions: probe 17, HEK293T cell lysates
T2 construct: expressed in transfected cells; host or cells: HEK 293T, transient transfection, lysate
T2 sequence (Q96ST3 1-400): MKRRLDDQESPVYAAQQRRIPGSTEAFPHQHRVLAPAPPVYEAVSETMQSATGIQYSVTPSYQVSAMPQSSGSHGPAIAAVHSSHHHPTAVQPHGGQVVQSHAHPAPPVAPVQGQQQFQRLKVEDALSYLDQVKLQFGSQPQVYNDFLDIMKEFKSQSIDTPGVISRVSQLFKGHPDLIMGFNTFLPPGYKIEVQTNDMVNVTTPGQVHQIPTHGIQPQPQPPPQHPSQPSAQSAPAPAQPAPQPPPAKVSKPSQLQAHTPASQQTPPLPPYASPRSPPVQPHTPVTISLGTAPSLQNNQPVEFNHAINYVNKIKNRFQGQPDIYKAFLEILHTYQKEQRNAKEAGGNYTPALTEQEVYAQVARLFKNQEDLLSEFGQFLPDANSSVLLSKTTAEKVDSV
Procedure: as §1, §2

[2] = biological target: T3, interaction between SIN3A and TGIF1 (Homo sapiens, UniProt Q96ST3); assay: Co-IP experiment, anti-Myc western blot; conditions: anti-Myc blotting
T3 construct: flag-SIN3A or the indicated Flag-SIN3A mutants (a.a. 1-400), or Flag-GFP, were co-expressed in HEK 293T cells with Myc-TGIF1 or Myc-TGIF2; expressed in transfected cells; host or cells: HEK 293T
T3 sequence (Q96ST3 1-400): as above
Procedure: (§3) Co-IP experiment for the interaction between SIN3A and TGIF1 and TGIF2. 6 cm dishes of HEK 293T cells were transfected at 40% confluency with 600 ng of FLAG-GFP, FLAG-SIN3A WT, K155W, or K155R construct, and 600 ng of MYC-TGIF1 or MYC-TGIF2 as indicated. After 48 hours, cells were lysed and enriched as described above. Following elution in 40 μL urea, 15 μL of loading buffer was added to samples. 15 μL of both input (10%) and outputs were loaded onto an SDS-PAGE gel.
(§4) Western blotting. Proteins were resolved by SDS-PAGE (3 h, 300 V) and transferred to nitrocellulose membranes (90 min, 60 V), blocked with 5% milk in TBS-T and probed with the indicated antibodies in 5% milk in TBS-T. The primary antibodies and the dilutions used are as follows: anti-Flag (Sigma Aldrich, F1804, 1:3,000), anti-Myc (Cell Signalling, 2272S, 1:5,000), anti-actin (Cell Signaling, 3700, 1:3,000) and anti-GAPDH (Santa Cruz, 32233, 1:10,000). Blots were incubated with primary antibodies overnight at 4° C. with rocking and were then washed (3×5 min, TBS-T) and incubated with secondary antibodies (LICOR, IRDye 800CW or IRDye 680LT, 1:10,000) for 1 h at ambient temperature. Blots were further washed (3×5 min, TBST) and visualized on a LICOR Odyssey Scanner. Relative band intensities were quantified using ImageJ software.

[3] = biological target: T4, interaction between SIN3A and TGIF1 (Homo sapiens, UniProt Q96ST3, K155R); assay: Co-IP experiment, anti-Myc western blot; conditions: K155R SIN3A
T4 construct: flag-SIN3A or the indicated Flag-SIN3A mutants (a.a. 1-400), or Flag-GFP, were co-expressed in HEK 293T cells with Myc-TGIF1 or Myc-TGIF2; expressed in transfected cells; host or cells: HEK 293T
T4 sequence (Q96ST3 1-400 K155R): as the sequence (Q96ST3 1-400) above, with K155R counted along it
Procedure: as §3, §4

PFKP = biological target: T5, PFKP (Homo sapiens, UniProt Q01813); assay: competitive gel-based ABPP, apparent IC50; conditions: read-out: apparent IC50, blockade of probe labeling of recombinant PFKP
T5 construct: Flag; expressed in transfected cells; host or cells: HEK 293T, transient transfection, soluble lysate; cDNA clone 5180268 (Dharmacon)
T5 sequence (Q01813 1-784): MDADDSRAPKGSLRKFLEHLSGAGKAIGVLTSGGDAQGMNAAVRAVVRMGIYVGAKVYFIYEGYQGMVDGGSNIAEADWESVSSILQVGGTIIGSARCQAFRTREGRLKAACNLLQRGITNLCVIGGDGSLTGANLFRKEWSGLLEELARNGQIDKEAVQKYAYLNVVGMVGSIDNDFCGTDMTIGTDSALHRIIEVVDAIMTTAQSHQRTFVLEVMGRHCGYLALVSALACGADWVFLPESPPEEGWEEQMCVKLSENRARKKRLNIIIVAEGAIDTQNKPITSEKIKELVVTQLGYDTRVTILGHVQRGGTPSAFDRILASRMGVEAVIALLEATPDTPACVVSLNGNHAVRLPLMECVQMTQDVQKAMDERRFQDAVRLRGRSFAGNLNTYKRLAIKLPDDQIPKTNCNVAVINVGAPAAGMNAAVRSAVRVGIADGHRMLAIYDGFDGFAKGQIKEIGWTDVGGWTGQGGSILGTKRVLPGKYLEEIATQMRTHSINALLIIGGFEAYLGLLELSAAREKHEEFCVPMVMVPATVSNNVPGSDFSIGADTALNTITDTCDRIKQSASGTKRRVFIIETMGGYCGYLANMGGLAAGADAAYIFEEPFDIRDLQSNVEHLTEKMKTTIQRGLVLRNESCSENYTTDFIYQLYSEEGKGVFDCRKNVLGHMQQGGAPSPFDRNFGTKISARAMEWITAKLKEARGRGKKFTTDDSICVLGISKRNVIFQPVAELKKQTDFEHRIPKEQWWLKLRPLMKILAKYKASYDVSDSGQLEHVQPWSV
Procedure: as §1, §2

IC50 (PNPO): 3 µM
SMILES: O=C(CCc1cn(-c2ccccc2)nc1-c1ccccc1)Oc1c(F)c(F)c(F)c(F)c1F [fragment 19, Pentafluorophenyl 3-(1,3-diphenyl-1H-pyrazol-4-yl)propanoate]

IC50 ([1]; read-out: apparent IC50, blockade of probe labeling of K155): 5 µM
SMILES: O=C(Oc1c(F)c(F)c(F)c(F)c1F)c1cc(C(F)(F)F)cc(C(F)(F)F)c1 [fragment 21, Pentafluorophenyl 3,5-bis(trifluoromethyl)benzoate]
blockade of probe labeling of K155 [1]: site-specific and complete blockade of probe labeling of K155; also recorded: blocks probe 17 labeling of SIN3A at K155 in a concentration-dependent manner | co-immunoprecipitation of TGIF1 with SIN3A [2]: blocked the co-immunoprecipitation of TGIF1 | effect on SIN3A-TGIF1 interaction, K155R mutant [3]: conferred resistance to the effects of 21

IC50 (PFKP): 2 µM
SMILES: O=C(Oc1c(F)c(F)c(F)c(F)c1F)C(c1ccccc1)c1ccccc1 [fragment 20, Pentafluorophenyl 2,2-diphenylacetate]
